Read-outs that look alike come from different tables or passages of the source. Peptide text beside a SMILES is read from it. * marks the point of attachment. Cbz = O=C(OCc1ccccc1)*; CH2F = FC*
What was measured:
INA-6 = test: Cell viability assay (annexin V-FITC/propidium iodide, flow cytometry) in INA-6 multiple myeloma cells; type: cell-based, human; conditions: for EC50: INA-6 multiple myeloma cells, 72 hours of treatment, viable cell fraction, mean of at least three determinations, read-out: INA-6 EC50(±sdv)
Procedure: The effect of pharmacological Hsp70 inhibition on cell viability was analyzed after 72 hours of treatment in both non-malignant (mononuclear cells from the peripheral blood) and malignant lymphocytes (multiple myeloma cells). The mononuclear cells were separated from the peripheral blood of healthy donors by Ficoll-Hypaque density gradient centrifugation. The human cell line INA-6 represents a well-established model for multiple myeloma. The percentage of viable and apoptotic cell fractions was assessed using an annexin V-FITC/propidium iodide (PI) staining kit (Bender MedSystems, Vienna, Austria) according to manufacturer's instructions. In brief, cells were washed in PBS, incubated for 10 min in 100 ml binding buffer (10 mM HEPES/NaOH, pH 7.4, 140 mM NaCl, 2.5 mM CaCl2) containing 2.5 ml annexin V-FITC mix and 1 mg/ml propidium iodide (PI), subsequently diluted with 100 ml binding buffer and analyzed by flow cytometry (FACSCalibur/CELLQuest; Becton Dickinson, Heidelberg, Germany). Whereas viable cells are negative for both, annexin V-FITC and PI, early apoptotic cells show a positive annexin V-FITC staining, and cells in a late apoptotic stage which lose their membrane integrity additionally incorporate DNA-binding PI. To establish kill curves, concentrations of the tested compounds were titrated, and the measured viable cell fractions were further analyzed using the Prism Calculation Software (GraphPad Software Inc., La Jolla, USA).
In FIG. 2A Western blot analyses of caspases 9 and 3, and the caspase substrate PARP (upper panel), and viability analyses (lower panel) of INA-6 MM cells upon treatment with trans-7b for 24 hours are shown. INA-6 cells were either incubated with DMSO (as a solvent control) or with 0.6 μM of trans-7b, and additionally incubated either with DMSO or the pan-caspase inhibitor Z-VAD-FMK prior to analyses by Western or viability assessment (without Z-VAD-FMK co-treatment) by Annexin V/propidum iodide double staining. For Western analyses INA-6 cell pellets were dissolved in lysis buffer (20 mM HEPES (pH 7.9), 350 mM NaCl, 1 mM MgCl2, 0.5 mM EDTA, 0.1 mM EGTA, 1% NP40, 0.5 mM dithiothreiol (DTT), 1 mM Na3VO4, 0.1 mM PMSF and 1 μg/ml aprotinin). Lysates were cleared by centrifugation, measured by quantitative protein assay (Bio-Rad, München, Germany) and subjected to SDS gel electrophoresis. Proteins were transferred onto nitrocellulose membranes (Schleicher & Schuell, Dassel, Germany), incubated with antibodies specific for caspase 9, caspase 3 or PARP (Cell Signaling Technology, Frankfurt a.Main, Germany) according to standard procedures and visualized with secondary anti-rabbit horseradish peroxidase (HRP)-conjugated antibodies using an enhanced chemoluminescence detection system (ECL, Amersham, Freiburg, Germany). […] Annexin V/propidium iodide (PI) staining was performed using a fluorescein isothiocyanate (FITC) conjugated recombinant human annexin/propidium iodide kit (BenderMedSystems, Vienna, Austria) according to the manufacturer's instructions. INA-6 cells were washed in PBS, incubated for 15 minutes in 100 ml binding buffer (10 mM HEPES/NaOH, pH 7.4, 140 mM NaCl, 2.5 mM CaCl2) containing 2.5 mL annexin V-FITC mix and 1 mg/ml PI and analyzed by flow cytometry (FACSCalibur/CELLQuest; Becton Dickinson, Heidelberg, Germany). Whereas early apoptosis is characterized by positive annexin V-FITC staining reaction, cells in a late apoptotic stage lose their membrane integrity and additionally incorporate PI. Thus, the fraction of viable cells remains negative for both annexin V-FITC and PI. […] Based on the above described experiments also viability analyses of INA-6 in comparison with non-malignant PBMCs were performed choosing a longer incubation time (72 hours) as shown in FIG. 2B or C. Raw data of three independent experiments have been calculated to establish means, standard deviation and dose-effect curves of trans-7b.

caspases 9 and 3 = test: Apoptosis assay: cleavage and activation of caspases 9 and 3, PARP cleavage in INA-6 cells (Western blot); type: cell-based, human; conditions: INA-6, Z-VAD-FMK 50 μM
Procedure: Apoptosis Assays. Hsp70-dependent prevention of apoptosis was investigated by analyses of the apoptosis-inducing factors (AIF) and of the caspases 9 and 3 in INA-6 cells. INA-6 cells were treated with 0.6 μM of compound trans-7b for 8 hours prior to analyze nuclear translocation of AIF. Staining of the nuclear protein lamin A was used as a loading control. […] Analysis of cleavage of the bona fide caspase substrate PARP served as a control for caspase activation. Co-treatment with the pan-caspase inhibitor Z-VAD-FMK (50 μM) was employed as another specificity control.
In FIG. 2A Western blot analyses of caspases 9 and 3, and the caspase substrate PARP (upper panel), and viability analyses (lower panel) of INA-6 MM cells upon treatment with trans-7b for 24 hours are shown. […] Lysates were cleared by centrifugation, measured by quantitative protein assay (Bio-Rad, München, Germany) and subjected to SDS gel electrophoresis. […] INA-6 cells were washed in PBS, incubated for 15 minutes in 100 ml binding buffer (10 mM HEPES/NaOH, pH 7.4, 140 mM NaCl, 2.5 mM CaCl2) containing 2.5 mL annexin V-FITC mix and 1 mg/ml PI and analyzed by flow cytometry (FACSCalibur/CELLQuest; Becton Dickinson, Heidelberg, Germany). […] Raw data of three independent experiments have been calculated to establish means, standard deviation and dose-effect curves of trans-7b.

Row | EC50 (INA-6) | melting point | EC50 (INA-6; Homo sapiens, INA-6, 72 h) | SMILES | trans-7b-induced induction of apoptosis under co-incubation (INA-6; INA-6, Z-VAD-FMK 50 μM with trans-7b 0.6 μM) | caspase activation and PARP cleavage under co-treatment with trans-7b (caspases 9 and 3)
1 |  |  |  | COC(=O)C[C@H](NC(=O)[C@H](C)NC(=O)[C@@H](NC(=O)OCc1ccccc1)C(C)C)C(=O)CF [Z-VAD-FMK, reference compound] (Cbz-Val-Ala-Asp(OMe)-CH2F) | largely prevented | sufficiently inhibited
2 | > 100 µM | 232 to 233 °C |  | COc1ccc(C2C(C(=O)O)c3ccccc3C(=O)N2c2ccc(OC)cc2)cc1 (stereo not drawn) [cis-5d, cis-2,3-Bis(4-methoxyphenyl)-1-oxo-1,2,3,4-tetrahydroisoquinoline-4-carboxylic acid] |  | 
3 |  | 226 to 229 °C | 6.9 µM | O=C(O)C1c2ccccc2C(=O)N(c2ccccc2)C1c1ccccc1 (stereo not drawn) [trans-5a, trans-2,3-Diphenyl-1-oxo-1,2,3,4-tetrahydroisoquinoline-4-carboxylic acid] |  | 
4 |  | 171 to 173 °C | 1.3 µM | COc1ccc(C2C(C(=O)O)c3ccccc3C(=O)N2c2ccccc2)cc1 (stereo not drawn) [trans-5b, trans-3-(4-Methoxyphenyl)-1-oxo-2-phenyl-1,2,3,4-tetrahydroisoquinoline-4-carboxylic acid] |  | 
5 | 57 µM | 106 to 118 °C |  | COc1ccc(N2C(=O)c3ccccc3C(C(=O)O)C2c2ccccc2)cc1 (stereo not drawn) [trans-5c, trans-2-(4-Methoxyphenyl)-1-oxo-3-phenyl-1,2,3,4-tetrahydroisoquinoline-4-carboxylic acid] |  | 
6 | 10.1 µM | 201 to 203 °C |  | COc1ccc(C2C(C(=O)O)c3ccccc3C(=O)N2c2ccc(OC)cc2)cc1 (stereo not drawn) [trans-5d, trans-2,3-Bis(4-methoxyphenyl)-1-oxo-1,2,3,4-tetrahydroisoquinoline-4-carboxylic acid] |  | 
